Test results published in patent US20260109707A1, “HETEROBIFUNCTIONAL COMPOUNDS AND METHODS OF TREATING DISEASE” (Halda Therapeutics OpCo. Inc., priority 2022, published 2026).

Legend:
BRD4-BD1 = molecular target: T1, BRD4-BD1 (Homo sapiens, UniProt O60885); assay: bromoKdELECT assay for binding affinity to BRD4-BD1; details: binding to BRD4-BD1, Table 4
T1 construct: made in house; host or cells: T7 phage grown in an E. coli host derived from the BL21 strain
Protocol: (§1) Compounds were tested using a bromoKdELECT assay. T7 phage strains displaying bromodomains were grown in parallel in 24-well blocks in an E. coli host derived from the BL21 strain. E. coli were grown to log-phase and infected with T7 phage from a frozen stock (multiplicity of infection=0.4) and incubated with shaking at 32° C. until lysis (90-150 minutes). The lysates were centrifuged (5,000×g) and filtered (0.2 μm) to remove cell debris. Streptavidin-coated magnetic beads were treated with biotinylated small molecule or acetylated peptide ligands for 30 minutes at room temperature to generate affinity resins for bromodomain assays. The liganded beads were blocked with excess biotin and washed with blocking buffer (SeaBlock (Pierce), 1% BSA, 0.05% Tween 20, 1 mM DTT) to remove unbound ligand and to reduce nonspecific phage binding. Binding reactions were assembled by combining bromodomains, liganded affinity beads, and test compounds in 1× binding buffer (17% SeaBlock, 0.33×PBS, 0.04% Tween 20, 0.02% BSA, 0.004% Sodium azide, 7.4 mM DTT). Test compounds were prepared as 1000× stocks in 100% DMSO. Kds were determined using an 11-point 3-fold compound dilution series with one DMSO control point. All compounds for Kd measurements are distributed by acoustic transfer (non-contact dispensing) in 100% DMSO. The compounds were then diluted directly into the assays such that the final concentration of DMSO was 0.09%. All reactions performed in polypropylene 384-well plates. Each was a final volume of 0.02 ml. The assay plates were incubated at room temperature with shaking for 1 hour and the affinity beads were washed with wash buffer (1×PBS, 0.05% Tween 20). The beads were then resuspended in elution buffer (1×PBS, 0.05% Tween […] non-biotinylated affinity ligand) and incubated at room temperature with shaking for 30 minutes. The bromodomain concentration in the eluates was measured by qPCR.

[1] = tested on: T-Rex 293 cell line SC3 cells having increased expression of androgen receptor protein due to exposure to doxycycline; assay: Cellular growth inhibition assay, T-Rex 293 SC3 cells with doxycycline (CellTiter-Glo, 72 hours); type: cell-based; details: 72 h, T-Rex 293 SC3 cells with increased androgen receptor expression due to doxycycline (10 ng/mL)
Method in brief: (§2)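 Doxycycline (10 ng/mL) was either included or omitted to toggle wild-type androgen receptor expression in SC3 cells, a T-Rex 293 clone, grown in stripped-serum, phenol red-free medium. After 72 hours with compound, viable cells were quantified by CellTiter-Glo 2.0.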

[2] = tested on: T-Rex 293 cell line SC3 cells lacking increased expression of androgen receptor protein; assay: Cellular growth inhibition assay, T-Rex 293 SC3 cells without doxycycline (CellTiter-Glo, 72 hours); type: cell-based; details: T-Rex 293 cell line SC3 cells not exposed to doxycycline (lacking increased androgen receptor expression)
Method in brief: as §2

VCaP cells = assay: Cellular growth inhibition assay for VCaP cells (CellTiter-Glo, 72 hours); type: cell-based, human; details: Homo sapiens, VCaP, 72 h
Method in brief: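 Luminescent viability signal after 72 h of compound exposure gave GI50 values by four-parameter nonlinear regression. Compounds were added in 0.5% DMSO to cells plated 24 h earlier at 5000/well in DMEM containing 10% FBS.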

BRD4-BD2 = molecular target: T2, BRD4-BD2 (Homo sapiens, UniProt O60885); assay: bromoKdELECT assay for binding affinity to BRD4-BD2; details: binding to BRD4-BD2, Table 5
T2 construct: made in house; host or cells: T7 phage grown in an E. coli host derived from the BL21 strain
Protocol: as §1, with “[…])” for “μm)”

Row | Kd (BRD4-BD1) [nM] | GI50 (VCaP cells) [nM] | Kd (BRD4-BD2) [nM] | Compound | GI50 [1] [nM] | GI50 ([2]; 72 h) [nM] | GI50 [2] [nM]
1 | < 50 | < 500 | – | Cc1sc2c(c1C)C(c1ccc(Cl)cc1)=N[C@@H](CC(=O)NCCOCCOCCOCCOCCOC1CCN(c3ccc(C(=O)N[C@H]4CC[C@H](Oc5ccc(C#N)c(Cl)c5)CC4)nn3)CC1)c1nnc(C)n1-2 [I-3, N-[4-(3-chloro-4-cyano-phenoxy)cyclohexyl]-6-[4-[2-[2-[2-[2-[2-[[2-[7-(4-chlorophenyl)-4,5,13-trimethyl-3-thia-1,8,11,12-tetrazatricyclo[8.3.0.0^2,6]trideca-2(6),4,7,10,12-pentaen-9-yl]acetyl]amino]ethoxy]ethoxy]ethoxy]ethoxy]ethoxy]-1-piperidyl]pyridazine-3-carboxamide] | < 500 | 1500 to 3000 | –
2 | 50 to 500 | – | < 50 | CCNC(=O)C[C@@H]1N=C(c2ccc(CCCC3CCN(c4ccc(C(=O)N[C@H]5CC[C@H](Oc6ccc(C#N)c(Cl)c6)CC5)nn4)CC3)cc2)c2c(sc(C)c2C)-n2c(C)nnc21 [I-51] | < 500 | – | 500 to 1500
